The source of these data is BindingDB's records for doi:10.1021/acs.jmedchem.6b01303 (Astrazeneca, 2016).

The nature of the test: Inhibition of SMYD2 (unknown origin) expressed in human U2OS cells assessed as reduction in cell count incubated for 24 hrs by DAPI staining based assay.

Structures are written as SMILES.

In general, IC50 refers to the concentration needed to halve the response being measured. `N#Cc1cc(C(=O)NCCCN2CCCC2)cc(-c2ccccc2N2CCN(CCc3ccc(Cl)c(Cl)c3)CC2)c1`: the IC50 was found to be 5 µM. Then `O=C(NCCCN1CCCC1)c1cncc(-c2ccccc2N2CCN(CCc3c[nH]c4ccccc34)CC2)c1`, with 13.3 µM.
